In patent US8658675B2, “Pyridin-4-yl derivatives” (Actelion Pharmaceuticals Ltd., priority 2009, dated 2014):

Columns and labels:
circulating lymphocytes = assay: Assessment of in vivo efficacy: circulating lymphocytes after oral administration; set-up: species or system normotensive male Wistar rats; conditions: Rattus norvegicus, Lymphocyte; 6 h after oral administration of 10 mg/kg, male Wistar rats, compared to vehicle group; read-out: Lymphocyte counts
Procedure: The efficacy of the compounds of Formula (I) is assessed by measuring the circulating lymphocytes after oral administration of 3 to 30 mg/kg of a compound of Formula (I) to normotensive male Wistar rats. The animals are housed in climate-controlled conditions with a 12 h-light/dark cycle, and have free access to normal rat chow and drinking water. Blood is collected before and 3, 6 and 24 h after drug administration. Full blood is subjected to hematology using Advia Hematology system (Bayer Diagnostics, Zurich, Switzerland).
All data are presented as mean±SEM. Statistical analyses are performed by analysis of variance (ANOVA) using Statistica (StatSoft) and the Student-Newman-Keuls procedure for multiple comparisons. The null hypothesis is rejected when p<0.05.
Lymphocyte counts 6 h after oral administration have been measured for 23 out of 30 exemplified compounds and are in the range of −42% to −80% with an average of −63%.

rat trachea rings [1] = assay: Measurement of isometric force development: rat trachea ring constriction; set-up: species or system Female Wistar rats; conditions: for potential to constrict rat trachea rings (comparison in words): compared to closest prior art analogues of WO 2008/029371 or to Example 2; for % trachea constriction at 1 μM: compound at 1 μM, in % of the constriction induced by 50 mM KCl
Procedure: Animals were obtained from RCC Ltd (Füllinsdorf, Switzerland). Female Wistar rats were euthanized by exposure to CO2. The tracheae were excised and rings from the lower segments were prepared. Rings of trachea were suspended in tissue baths (10 mL) containing Krebs-Henseleit buffer of the following composition (mM): NaCl 115; KCl 4.7; MgSO4 1.2; KH2PO4 1.5; CaCl2 2.5; NaHCO3 25; glucose 10. Bathing solution was maintained at 37° C. and aerated with 95% O2/5% CO2 (pH 7.4). A resting force of 2 g (20 mN) was applied to the ring preparation, and changes in force generation were measured using an isometric force recorder (EMKA Technologies Inc, Paris, France). Viability of rings was assessed by exposure to a depolarizing concentration of KCl (50 mM). Contraction of trachea was expressed as a percentage of the response to KCl.
All compounds were prepared as stock solutions of 0.3 mM in pure DMSO. Compounds were added to the bath (10 mL) in a volume of 33 μL to give a final bath concentration of DMSO of 0.33%.
Contraction of trachea was measured for 15 out of 30 exemplified compounds.

rat trachea rings [2] = assay: as above; set-up: species or system Female Wistar rats; conditions: compound at 10 μM; in % of the constriction induced by 50 mM KCl
human S1P1 receptor = human S1P1 receptor (Homo sapiens, UniProt P21453); assay: GTPγS assay to determine EC50 values; assay type: biochemical; conditions: membranes of CHO cells expressing recombinant human S1P1 receptor; 35S-GTPγS binding
Sequence of human S1P1 receptor (P21453 whole entry): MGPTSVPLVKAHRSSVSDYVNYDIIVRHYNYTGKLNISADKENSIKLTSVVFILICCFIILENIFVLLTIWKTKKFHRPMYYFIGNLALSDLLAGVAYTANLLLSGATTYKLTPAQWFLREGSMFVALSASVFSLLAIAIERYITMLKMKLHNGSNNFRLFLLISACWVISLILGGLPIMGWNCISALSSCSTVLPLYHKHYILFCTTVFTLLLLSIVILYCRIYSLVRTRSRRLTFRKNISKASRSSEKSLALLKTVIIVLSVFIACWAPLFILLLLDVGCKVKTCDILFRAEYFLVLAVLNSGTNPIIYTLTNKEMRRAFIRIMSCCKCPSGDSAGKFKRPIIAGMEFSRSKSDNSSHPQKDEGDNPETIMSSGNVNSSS
Procedure: GTPγS binding assays are performed in 96 well microtiter plates (Nunc, 442587) in a final volume of 200 μl, using membrane preparations of CHO cells expressing recombinant human S1P1 receptor. Assay conditions are 20 mM Hepes (Fluka, 54461), 100 mM NaCl (Fluka, 71378), 5 mM MgCl2 (Fluka, 63064), 0.1% BSA (Calbiochem, 126609), 1 μM GDP (Sigma, G-7127), 2.5% DMSO (Fluka, 41644), […] ^35S-GTPγS (Amersham Biosciences, SJ1320). The pH is 7.4. Test compounds are dissolved and diluted in 100% DMSO and pre-incubated at room temperature for 30 min in 150 μl of the above assay buffer, in the absence of ^35S-GTPγS. After addition of 50 μl of ^35S-GTPγS, the assay is incubated for 1 h at rt. The assay is terminated by transfer of the reaction mixture to a Multiscreen plate (Millipore, MAHFC1H60) using a cell harvester from Packard Biosciences, and the plates are washed with ice-cold 10 mM Na2HPO4/NaH2PO4 (70%/30%), dried, sealed at the bottom and, after addition of 25 μl MicroScint20 (Packard Biosciences, order#6013621), sealed on the top. Membrane-bound ^35S-GTPγS is measured with a TopCount from Packard Biosciences.
EC50 is the concentration of agonist inducing 50% of the maximal specific ^35S-GTPγS binding. Specific binding is determined by subtracting non-specific binding from maximal binding. Maximal binding is the amount of cpm bound to the Multiscreen plate in the presence of 10 μM of S1P. Non-specific binding is the amount of binding in the absence of an agonist in the assay.
Agonistic activities (EC50 values) of all exemplified compounds have been measured.

SMILES | change in vivo at 10 mg/kg (circulating lymphocytes) [%] | potential to constrict rat trachea rings (comparison in words) (rat trachea rings [1]) | % trachea constriction at 1 μM (rat trachea rings [1]) [%] | % trachea constriction at 10 μM (rat trachea rings [2]) [%] | EC50 (human S1P1 receptor) [nM]
CCc1cc(-c2noc(-c3cc(OC)nc(C(CC)CC)c3)n2)cc(C)c1OC[C@@H](O)CO [Example 1, (S)-3-(2-Ethyl-4-{5-[2-(1-ethyl-propyl)-6-methoxy-pyridin-4-yl]-[1,2,4]oxadiazol-3-yl}-6-methyl-phenoxy)-propane-1,2-diol] | -63 | significantly reduced potential to constrict rat trachea rings | <5 | 24 | 2.7
CCc1cc(-c2noc(-c3cc(OC)nc(C4CCCC4)c3)n2)cc(C)c1OC[C@@H](O)CO [Example 2, (S)-3-{4-[5-(2-Cyclopentyl-6-methoxy-pyridin-4-yl)-[1,2,4]oxadiazol-3-yl]-2-ethyl-6-methyl-phenoxy}-propane-1,2-diol] | -70 | markedly reduced potential to constrict rat trachea rings | <5 | <5 | 0.9
CCc1cc(-c2noc(-c3cc(OC)nc(C(CC)CC)c3)n2)cc(C)c1OC[C@@H](O)CNC(=O)CO [Example 6, N-[(2S)-3-(2-Ethyl-4-{5-[2-(1-ethyl-propyl)-6-methoxy-pyridin-4-yl]-[1,2,4]oxadiazol-3-yl}-6-methyl-phenoxy)-2-hydroxy-propyl]-2-hydroxy-acetamide] | -59 | significantly reduced potential to constrict rat trachea rings | <5 | 100 | 0.6
CCc1cc(-c2noc(-c3cc(OC)nc(C4CCCC4)c3)n2)cc(C)c1OC[C@@H](O)CN(C)C(=O)CO [Example 10, N-((2S)-3-{4-[5-(2-Cyclopentyl-6-methoxy-pyridin-4-yl)-[1,2,4]oxadiazol-3-yl]-2-ethyl-6-methyl-phenoxy}-2-hydroxy-propyl)-2-hydroxy-N-methyl-acetamide] | -68 | – | <5 | <5 | 2.6
COc1cc(-c2nc(-c3cc(C)c(NS(C)(=O)=O)c(Cl)c3)no2)cc(C2CCCC2)n1 [Example 12, N-{2-Chloro-4-[5-(2-cyclopentyl-6-methoxy-pyridin-4-yl)-[1,2,4]oxadiazol-3-yl]-6-methyl-phenyl}-methanesulfonamide] | -64 | – | <5 | <5 | 0.3
COc1cc(-c2nc(-c3cc(C)c(OC[C@@H](O)CO)c(Cl)c3)no2)cc(C2CCCC2)n1 [Example 13, (S)-3-{2-Chloro-4-[5-(2-cyclopentyl-6-methoxy-pyridin-4-yl)-[1,2,4]oxadiazol-3-yl]-6-methyl-phenoxy}-propane-1,2-diol] | -60 | – | <5 | – | 1
CCc1cc(-c2noc(-c3cc(CCC(C)C)nc(OC)c3)n2)cc(C)c1OC[C@@H](O)CNC(=O)CO [Example 16, N-[(2S)-3-(2-Ethyl-4-{5-[2-methoxy-6-(3-methyl-butyl)-pyridin-4-yl]-[1,2,4]oxadiazol-3-yl}-6-methyl-phenoxy)-2-hydroxy-propyl]-2-hydroxy-acetamide] | -73 | markedly reduced potential to constrict rat trachea rings | <5 | – | 0.7
CCc1cc(-c2noc(-c3cc(OC)nc(C(CC)CC)c3)n2)cc(C)c1NS(C)(=O)=O [Example 18, N-(2-Ethyl-4-{5-[2-(1-ethyl-propyl)-6-methoxy-pyridin-4-yl]-[1,2,4]oxadiazol-3-yl}-6-methyl-phenyl)-methanesulfonamide] | -42 | – | <5 | <5 | 2.5
CCc1cc(-c2noc(-c3cc(OC)nc(C4CCCC4)c3)n2)cc(C)c1NS(C)(=O)=O [Example 19, N-{4-[5-(2-Cyclopentyl-6-methoxy-pyridin-4-yl)-[1,2,4]oxadiazol-3-yl]-2-ethyl-6-methyl-phenyl}-methanesulfonamide] | -61 | – | <5 | <5 | 1
CCc1cc(-c2nc(-c3cc(OC)nc(C4CCCC4)c3)no2)cc(C)c1OC[C@@H](O)CO [Example 21, (S)-3-{4-[3-(2-Cyclopentyl-6-methoxy-pyridin-4-yl)-[1,2,4]oxadiazol-5-yl]-2-ethyl-6-methyl-phenoxy}-propane-1,2-diol] | -62 | same low potential to constrict rat trachea rings | <5 | – | 0.7
CCc1cc(-c2nnc(-c3cc(OC)nc(C4CCCC4)c3)o2)cc(C)c1OC[C@@H](O)CO [Example 25, (S)-3-{4-[5-(2-Cyclopentyl-6-methoxy-pyridin-4-yl)-[1,3,4]oxadiazol-2-yl]-2-ethyl-6-methyl-phenoxy}-propane-1,2-diol] | -51 | – | 53 | – | 1.9
